# Measurements published in patent US20240350402A1, “TOPICAL DRUG TREATMENT TO PREVENT OR REDUCE CORNEAL SCARRING” (The Cleveland Clinic Foundation, priority 2021, published 2024).
# How the values were obtained:
# [1] = tested on: myofibroblast marker α-SMA; assay: -9D PRK model: IHC stromal α-SMA pixels (ImageJ); assay type: in vivo, rabbit; conditions: topical 0.8 mg/ml losartan six times a day, one month
# Method: Animal procedures were approved by the Institutional Animal Care and Use Committee at the Cleveland Clinic Foundation and animals were treated in accordance with the tenets of the Association for Research in Vision and Ophthalmology Statement for the Use of Animals in Ophthalmic and Vision Research. Twelve female 12- to 15-week-old New Zealand white rabbits weighing 2.5 to 3 kg each were included. Starting 24 hours prior to surgery and continuing 5 days after PRK, all rabbits received 60 mL children's liquid acetaminophen (Johnson & Johnson, Ft. Washington, PA, USA) per 1 L of drinking water. One eye of each rabbit was randomly selected to have −9.0 D (on myopia scale) PRK and received 2 drops of topical 1% proparacaine hydrochloride (Alcon, Fort Worth, TX, USA) prior to the surgery. […]
# All images were converted to 300 DPI 900 pixel width×672 pixel height images with Photoshop 22.1.1 (Adobe, San Jose, CA). The mean pixels of stromal α-SMA or stromal collagen type IV were determined in a 900-pixel wide×235-pixel high rectangle (for either α-SMA or collagen type IV quantitation) with ImageJ in three sections for each cornea using the image panels showing only the color of interest. […]
# collagen type IV = assay: DMR model: IHC collagen type IV intensity in posterior stroma (ImageJ); assay type: in vivo, rabbit; conditions: one month
# Method: The rabbits had general anaesthesia with 30 mg/kg ketamine hydrochloride and 5 mg/kg xylazine by IM injection. In addition, topical proparacaine hydrochloride 1% (Alcon, Ft Worth, TX, USA) was applied to each eye prior to the surgery. One cornea selected at random in each group either had sham surgery without Descemetorhexis or an 8 mm diameter central Descemet's membrane-endothelial excision. The time point of one month after surgery was selected for the study because myofibroblasts and fibrosis in the posterior cornea was maximal at this time point in a prior time course Descemetorhexis study (Sampaio et al., 2021). Descemetorhexis was performed as described in the prior study (Sampaio et al., 2021). Briefly, a wire lid speculum was placed into one eye of each rabbit and an 8 mm diameter gentian violet circle was marked on the epithelial surface for reference. A limbal entry incision was created with a 1.6 mm blade (Bausch and Lomb, Rochester, NY, USA) and 0.3 ml Healon OVD (Abbott Medical Optics Inc. Santa Ana, CA, USA) was injected into the anterior chamber. A reversed Sinskey hook (Katena, Denville, New Jersey, USA) was placed into the anterior chamber and an 8 mm diameter disc of Descemet's membrane and endothelium was excised underlying the 8 mm area previously marked on the anterior corneal surface, without a subsequent endothelial corneal transplant. No removal of Descemet's membrane or endothelium was performed in unwounded sham surgery eyes. Remaining Healon OVD was removed with a Simcoe irrigation and aspiration cannula (Bausch & Lomb, Storz, Rochester, NY, USA) and the anterior chamber was filled with balanced salt solution (BSS). A single 10-0 nylon suture was placed at the incision site to prevent leakage from the anterior chamber. One drop of ciprofloxacin (Alcon, Ft. Worth, TX, USA) was applied to the corneas immediately after surgery and four times a day until the epithelium entry wound healed at approximately 2 days.
# The oral solution was prepared with 5 ml distilled water+50 ml ora-plus (suspending vehicle—Perrigo, Dublin, Ireland)+45 ml Ora-sweet (flavored syrup vehicle—Perrigo).
# Duplex immunohistochemistry (IHC) was performed after masking of slides by a researcher not involved in the analysis using previously described methods (de Oliveira et al., 2021) using primary antibodies (Table 2) confirmed by western blotting and IHC to recognize rabbit antigens or isotypic control antibodies (ThermoFisher Scientific, Waltham, MA), and secondary fluorescent tagged antibodies (Table 3).
# The AB769 (Millipore, Temecula CA) collagen type IV antibody used in this study was generated against purified human and bovine collagen type IV, affinity purified with human and bovine collagen type IV crosslinked to agarose and cross-absorbed by the manufacturer with human and bovine collagens type I, II, III, V and VI to eliminate cross-reactivity. […]
# Collagen type IV intensity in immunohistochemistry images was quantitated in 0.75 W×0.5H rectangles of posterior stroma tangent to the posterior corneal surface using ImageJ on 7.62 cm wide×5.69 cm height and 300 DPI images generated using standardized microscopic illumination settings applied to all sections. The quantitation rectangles were positioned such that the posterior side of the rectangle was tangent to the posterior corneal surface just anterior to Descemet's membrane, if one was present, in the analysed specimens. […]
# [2] = topical losartan and oral losartan
smiles,measurement,setting,value
CCCCc1nc(Cl)c(CO)n1Cc1ccc(-c2ccccc2-c2nn[nH]n2)cc1 [losartan],total pixels of α-SMA staining within the analyzed rectangle (mean±SEM),[1],120±60 pixels
same,collagen type IV production in the posterior stroma,collagen type IV; oral losartan alone,no significant effect
same,collagen type IV localization in posterior stroma (IHC),collagen type IV; topical losartan alone,primarily detected adjacent to the posterior surfaces
same,collagen type IV vs DMR corneas treated with topical losartan alone,collagen type IV; [2],not different
same,posterior stromal collagen type IV production compared to topical vehicle and oral vehicle (ImageJ intensity),collagen type IV; [2],significantly decreased
same,posterior stromal collagen type IV production compared to topical vehicle and oral vehicle (ImageJ intensity),collagen type IV; topical losartan,significantly decreased
